Experimental data taken from article PMC5517430, “2,3,7,8-Tetrachlorodibenzo-p-dioxin (TCDD)-elicited effects on bile acid homeostasis: Alterations in biosynthesis, enterohepatic circulation, and microbial metabolism” (Scientific Reports, 2017).

How the values were obtained:
Format in all cases: in vivo, mouse
[1] = test system: bsh and baiCD of gut microbiota; assay: Degenerate qRT-PCR of bacterial functional genes in fecal pellets; conditions: male mice, 30 µg/kg TCDD
Excerpt: The bsh Hidden Markov Model (HMM) constructed by the Ribosomal Database Project consisted of 12 vetted seed sequences from Lactobacillus, Clostridium, Roseburia, Eubacterium, Butyrivibrio, and Streptococcus species, while the baiCD HMM consisted of 10 vetted seed sequences from Clostridium and Lachnospiraceae species. Using these models, more inclusive sequence sets were created for bsh and baiCD within the ‘FunGene functional gene pipeline & repository’[80] by extracting sequences from GenBank. Setting the HMM consensus percent identity cut-off to ≥40%, nucleotide sequences of bsh and baiCD were obtained from 2633 and 129 bacterial organisms, respectively. Given the diversity of bacterial organisms found to express bsh, the 2633 sequences from FunGene were separated into 4 groups based on nucleotide similarity determined through construction of a phylogenetic tree (Group 1: 423, Group 2: 330, Group 3: 955, Group 4: 925). Bacterial classifications (genus level) of the bsh sequences in each phylogenetic group are depicted in Fig. 8A1. […] The Primer Design terminal program developed by the Ribosomal Database Project (https://github.com/rdpstaff/PrimerDesign) was used to design degenerate primer sets which target conserved regions within baiCD and each phylogenetic group of bsh (Supplementary Table S2). To estimate the overall abundance of bile acid metabolism genes within the gut microbiome, primer sets were selected to target ≥75% of the baiCD sequences and the sequences within each bsh group.
Frozen fecal pellets were crushed into a powder and bacterial DNA was isolated using the QIAamp DNA Stool Mini Kit (Qiagen, Valencia, CA). To investigate bile acid metabolism loci, qRT-PCR was performed on a Bio-Rad CFX Connect Real-Time PCR Detection System as previously described. Gene expression relative to vehicle control was calculated using the 2^−∆∆CT method, with each fecal sample extract normalized to total bacterial DNA levels using universal primers targeting the 16 S ribosomal RNA gene[81]. Gene levels are plotted relative to vehicle control.

Slc10a2 = assay: Ileal epithelium RNA-Seq differential gene expression (fold change, P1(t), ED50, BMD, BMDL); design: key to Cyp3a44 P1(t)_30: statistical P1(t) value; differentially expressed if ≥ 0.8; conditions: C57BL/6, mouse, ileal epithelium, oral; male mice, TCDD every 4 d for 28 d
Protocol: (§1) Frozen ileal epithelium scrapings and liver samples were homogenized in TRIzol (Ambion, Waltham, MA) using a Mixer Mill 300 tissue homogenizer (Retsch, Germany) and total RNA was isolated as previously described. RNA was quantified using a Nano-drop spectrophotometer (Thermo Scientific, Wilmington, DE) at 260 nm, and purity was assessed using the A260/A280 ratio and the Caliper LabChip GX (Perkin Elmer, Waltham, MA).
(§2) Dose-dependent gene expression was examined using RNA-Seq performed at the MSU Research Technology Support Facility (RTSF) Genomics Core (rtsf.natsci.msu.edu/genomics). Ileal libraries from three independent biological replicates (n = 3) were prepared using the Ovation Mouse RNA-Seq System 1–16 sample preparation kit (NuGen, San Carlos, CA), with an additional DNase step. Libraries were quantified and sequenced as previously described, using a read depth of ~30 M per sample[33], [67]. Quality was determined using FASTQC v0.11.3 and adaptor sequences were removed using Trimmomatic v0.33. Reads were mapped to the mouse reference genome (GRCm38 release 81) using Bowtie2 v2.2.6 and TopHat2 v2.1.0. Alignments were converted to SAM format using SAMTools v1.2.0. For TCDD-mediated differential gene expression, fold changes were calculated relative to vehicle controls. Hepatic RNA-Seq analysis was previously published. Genes were considered differentially expressed if |fold change| ≥ 1.5 and statistical P1(t) value ≥ 0.8 at one or more doses. RNA-Seq datasets for the ileal epithelium and liver were deposited in the Gene Expression Omnibus (GEO; accession number GSE89430 and GSE87519, respectively). The RNA-Seq results (fold changes, P1(t) values) for each gene discussed in the manuscript have been compiled in Supplementary Table S1. […] Estimation of benchmark dose (BMD) and BMD lower confidence limit (BMDL) was performed using BMDExpress[69] as previously described, and has been included in Supplementary Table S1.

ileal gene expression = assay: as above; design: key to Cyp3a44 P1(t)_30: statistical P1(t) value; differentially expressed if ≥ 0.8
Protocol: as §1, §2

Slc51a = assay: as above; design: key to Cyp3a44 P1(t)_30: statistical P1(t) value; differentially expressed if ≥ 0.8; conditions: C57BL/6, mouse, ileal epithelium, oral; male mice, TCDD every 4 d for 28 d
Protocol: as §1, §2

[2] = normalized to 16S rRNA gene, n = 2
[3] = ileum, 0.01 µg/kg TCDD, relative to vehicle control
[4] = ileum, 0.03 µg/kg TCDD, relative to vehicle control
[5] = ileum, 0.1 µg/kg TCDD, relative to vehicle control
[6] = ileum, 0.3 µg/kg TCDD, relative to vehicle control
[7] = ileum, 1 µg/kg TCDD, relative to vehicle control
[8] = ileum, 3 µg/kg TCDD, relative to vehicle control
[9] = ileum, 10 µg/kg TCDD, relative to vehicle control
[10] = ileum, 30 µg/kg TCDD, relative to vehicle control
[11] = male mice, TCDD every 4 d for 28 d

Clc1cc2c(cc1Cl)Oc1cc(Cl)c(Cl)cc1O2 [TCDD, 2,3,7,8-tetrachlorodibenzo-p-dioxin]
bsh gene levels within phylogenetic group 4 [1]: unaffected | bsh gene levels within phylogenetic groups 1, 2, and 3 [1]: increased | Clostridium baiCD level (validated primers), fold increase [1, 2]: 2.1 fold | bsh gene level, group 1 primer set 7, fold increase [1, 2]: 21.8 fold | bsh gene level, group 1 primer set 8, fold increase [1, 2]: 7.3 fold | bsh gene level, group 2 primer set 2, fold increase [1, 2]: 7.6 fold | bsh gene level, group 2 primer set 11, fold increase [1, 2]: 7.5 fold | bsh gene level, group 3 primer set 9, fold increase [1, 2]: 4.2 fold | fold induction at 28 d (Slc10a2): 1.6 | Cyp3a44 BMD (ileal gene expression; ileum): 36.49 µg/kg TCDD | Cyp3a44 BMDL (ileal gene expression; ileum): 18.80 µg/kg TCDD | Cyp3a44 Differentially Expressed? (ileal gene expression; ileum): YES | Cyp3a44 ED50 (ileal gene expression; ileum): Not sigmoidal | Fgf15 BMD (ileal gene expression; ileum): No model fit | Fgf15 BMDL (ileal gene expression; ileum): No model fit | Fgf15 Differentially Expressed? (ileal gene expression; ileum): YES | Fgf15 ED50 (ileal gene expression; ileum): 9.00 µg/kg TCDD | Slc10a2 (ASBT or IBAT) BMD (ileal gene expression; ileum): 5.66 µg/kg TCDD | Slc10a2 (ASBT or IBAT) BMDL (ileal gene expression; ileum): 0.69 µg/kg TCDD | Slc10a2 (ASBT or IBAT) Differentially Expressed? (ileal gene expression; ileum): YES | Slc10a2 (ASBT or IBAT) ED50 (ileal gene expression; ileum): 0.98 µg/kg TCDD | Slc51a (OSTα) BMD (ileal gene expression; ileum): No model fit | Slc51a (OSTα) BMDL (ileal gene expression; ileum): No model fit | Slc51a (OSTα) Differentially Expressed? (ileal gene expression; ileum): YES | Slc51a (OSTα) ED50 (ileal gene expression; ileum): 0.89 µg/kg TCDD | Cyp3a44 P1(t)_0.01 (ileal gene expression; ileum, 0.01 µg/kg TCDD): -0.1316 | Cyp3a44 FC_0.01 (ileal gene expression; [3]): 0.91 | Fgf15 FC_0.01 (ileal gene expression; [3]): 0.81 | Slc10a2 (ASBT or IBAT) FC_0.01 (ileal gene expression; [3]): 0.93 | Slc51a (OSTα) FC_0.01 (ileal gene expression; [3]): 0.98 | Slc51b (OSTβ) FC_0.01 (ileal gene expression; [3]): 0.88 | Cyp3a44 P1(t)_0.03 (ileal gene expression; ileum, 0.03 µg/kg TCDD): 0.0640 | Cyp3a44 FC_0.03 (ileal gene expression; [4]): 0.80 | Fgf15 FC_0.03 (ileal gene expression; [4]): 0.63 | Slc10a2 (ASBT or IBAT) FC_0.03 (ileal gene expression; [4]): 0.93 | Slc51a (OSTα) FC_0.03 (ileal gene expression; [4]): 0.96 | Slc51b (OSTβ) FC_0.03 (ileal gene expression; [4]): 0.87 | Cyp3a44 P1(t)_0.1 (ileal gene expression; ileum, 0.1 µg/kg TCDD): -0.1090 | Cyp3a44 FC_0.1 (ileal gene expression; [5]): 0.89 | Fgf15 FC_0.1 (ileal gene expression; [5]): 0.85 | Slc10a2 (ASBT or IBAT) FC_0.1 (ileal gene expression; [5]): 0.92 | Slc51a (OSTα) FC_0.1 (ileal gene expression; [5]): 0.98 | Slc51b (OSTβ) FC_0.1 (ileal gene expression; [5]): 0.88 | Cyp3a44 P1(t)_0.3 (ileal gene expression; ileum, 0.3 µg/kg TCDD): 0.6027 | Cyp3a44 FC_0.3 (ileal gene expression; [6]): 0.61 | Fgf15 FC_0.3 (ileal gene expression; [6]): 1.12 | Slc10a2 (ASBT or IBAT) FC_0.3 (ileal gene expression; [6]): 0.74 | Slc51a (OSTα) FC_0.3 (ileal gene expression; [6]): 1.07 | Slc51b (OSTβ) FC_0.3 (ileal gene expression; [6]): 0.88 | Cyp3a44 P1(t)_1 (ileal gene expression; ileum, 1 µg/kg TCDD): 0.5083 | Cyp3a44 FC_1 (ileal gene expression; [7]): 0.65 | Fgf15 FC_1 (ileal gene expression; [7]): 1.50 | Slc10a2 (ASBT or IBAT) FC_1 (ileal gene expression; [7]): 1.19 | Slc51a (OSTα) FC_1 (ileal gene expression; [7]): 1.30 | Slc51b (OSTβ) FC_1 (ileal gene expression; [7]): 0.90 | Cyp3a44 P1(t)_3 (ileal gene expression; ileum, 3 µg/kg TCDD): -0.1130 | Cyp3a44 FC_3 (ileal gene expression; [8]): 1.12 | Fgf15 FC_3 (ileal gene expression; [8]): 1.99 | Slc10a2 (ASBT or IBAT) FC_3 (ileal gene expression; [8]): 1.22 | Slc51a (OSTα) FC_3 (ileal gene expression; [8]): 1.46 | Slc51b (OSTβ) FC_3 (ileal gene expression; [8]): 0.95 | Cyp3a44 P1(t)_10 (ileal gene expression; ileum, 10 µg/kg TCDD): 0.9033 | Cyp3a44 FC_10 (ileal gene expression; [9]): 0.46 | Fgf15 FC_10 (ileal gene expression; [9]): 0.51 | Slc10a2 (ASBT or IBAT) FC_10 (ileal gene expression; [9]): 1.38 | Slc51a (OSTα) FC_10 (ileal gene expression; [9]): 1.34 | Slc51b (OSTβ) FC_10 (ileal gene expression; [9]): 0.93 | Cyp3a44 P1(t)_30 (ileal gene expression; ileum, 30 µg/kg TCDD): 0.7035 | Cyp3a44 FC_30 (ileal gene expression; [10]): 0.58 | Fgf15 FC_30 (ileal gene expression; [10]): 0.10 | Slc10a2 (ASBT or IBAT) FC_30 (ileal gene expression; [10]): 1.59 | Slc51a (OSTα) FC_30 (ileal gene expression; [10]): 1.15 | Slc51b (OSTβ) FC_30 (ileal gene expression; [10]): 0.79 | Cyp3a44 ileal expression, fold repression (ileal gene expression; [11]): 2.2 fold | Slc51b ileal expression (ileal gene expression; [11]): unchanged | fold induction at 28 d (Slc51a): 1.5
